Data: patent publication US9388199B2, “Pyrrolidine derivatives and their use as complement pathway modulators” (priority 2012, dated 2016)
Structures can show the parent of a compound that is named as a salt.

Target: Recombinant human factor D (Homo sapiens (Human), UniProt P00746)
Experiment: Human Complement Factor D Assay: Method 1
Format: biochemical
Conditions: 10 nM factor D, substrate Z-Lys-thiobenzyl, fluorescence readout, read-out: IC50 (μM), Factor D inhibition
Method: Human Complement Factor D Assay: Method 1
Recombinant human factor D (expressed in E. coli and purified using standard methods) at 10 nM concentration is incubated with test compound at various concentrations for 1 hour at room temperature in 0.1 M Hepes buffer, pH 7.5, containing 1 mM MgCl2, 1 M NaCl and 0.05% CHAPS. A synthetic substrate Z-Lys-thiobenzyl and 2,4-dinitrobenzenesulfonyl-fluoresceine are added to final concentrations of 200 μM and 25 μM, respectively. The increase in fluorescence is recorded at excitation of 485 nm and emission at 535 nm in a microplate spectrofluorimeter. IC50 values are calculated from percentage of inhibition of complement factor D-activity as a function of test compound concentration.

Sequence of Recombinant human factor D (P00746 26-253): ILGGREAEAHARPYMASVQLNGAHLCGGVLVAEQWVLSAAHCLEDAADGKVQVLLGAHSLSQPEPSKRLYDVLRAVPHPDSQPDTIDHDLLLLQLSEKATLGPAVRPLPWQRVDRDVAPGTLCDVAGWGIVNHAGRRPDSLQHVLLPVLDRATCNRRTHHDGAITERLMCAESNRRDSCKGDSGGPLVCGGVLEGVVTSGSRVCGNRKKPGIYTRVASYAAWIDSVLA

SMILES	IC50 [µM]
C[Si](C)(C)CCNC(=O)[C@@H]1C[C@H]2C[C@H]2N1C(=O)Cn1nc(C(N)=O)c2ccncc21 [Example 9, 1-{2-Oxo-2-[(1R,3S,5R)-3-(2-trimethylsilanyl-ethylcarbamoyl)-2-aza-bicyclo[3.1.0]hex-2-yl)-ethyl}-1H-pyrazolo[3,4-c] pyridine-3-carboxylic acid amide]	0.153
CC(C)(C)C(=O)CNC(=O)[C@@H]1C[C@H]2C[C@H]2N1C(=O)Cn1nc(C(N)=O)c2ccccc21 [Example 34, 1-{2-[(1R,3S,5R)-3-(3,3-Dimethyl-2-oxo-butylcarbamoyl)-2-aza-bicyclo[3.1.0]hex-2-yl]-2-oxo-ethyl}-1H-indazole-3-carboxylic acid amide]	0.192
CC(=O)c1nn(CC(=O)N2[C@@H]3C[C@@H]3C[C@H]2C(=O)NCC(O)C(F)(F)F)c2ncccc12 (stereo partly drawn) [Example 40, (1R,3S,5R)-2-[2-(3-Acetyl-pyrazolo[3,4-b]pyridin-1-yl)-acetyl]-2-aza-bicyclo [3.1.0]hexane-3-carboxylic acid (3,3,3-trifluoro-2-hydroxy-propyl)-amide]	10.8
C[C@H](CC(C)(C)C)NC(=O)[C@@H]1C[C@H]2C[C@H]2N1C(=O)Cn1nc(C(N)=O)c2ccccc21 [Example 36, 1-{2-Oxo-2-[(1R,3S,5R)-3-((R)-1,3,3-trimethyl-butylcarbamoyl)-2-aza-bicyclo[3.1.0]hex-2-yl]-ethyl}-1H-indazole-3-carboxylic acid amide]	0.113
CC[C@@H](C)NC(=O)[C@@H]1C[C@H]2C[C@H]2N1C(=O)Cn1nc(C(C)=O)c2cc(OCc3ncccn3)ccc21 [Example 17, (1R,3S,5R)-2-{2-[3-Acetyl-5-(pyrimidin-2-ylmethoxy)-indazol-1-yl]-acetyl}-2-aza-bicyclo[3.1.0]hexane-3-carboxylic acid ((R)-sec-butyl)-amide]	0.333
NC(=O)n1cc(NC(=O)N2[C@@H]3C[C@@H]3C[C@H]2C(=O)NCCCCOC(F)(F)F)c2ccccc21 [Example 26, (1R,3S,5R)-2-Aza-bicyclo [3.1.0]hexane-2,3-dicarboxylic acid 2-[(1-carbamoyl-1H-indol-3-yl)-amide] 3-[(4-trifluoromethoxy-butyl)-amide]]	1.39
CO[C@H]1[C@@H](C(=O)NCCC(C)(C)C)N(C(=O)Cn2nc(C(N)=O)c3ccccc32)C[C@@H]1F [Example 3, 1-{2-[(2S,3S,4S)-2-(3,3-Dimethyl-butylcarbamoyl)-4-fluoro-3-methoxy-pyrrolidin-1-yl]-2-oxo-ethyl}-1H-indazole-3-carboxylic acid amide]	0.103
CC(C)(C)C[C@H](CO)NC(=O)[C@@H]1C[C@H]2C[C@H]2N1C(=O)Cn1nc(C(N)=O)c2ccccc21 [Example 42, 1-{2-[(1R,3S,5R)-3-((R)-1-Hydroxymethyl-3,3-dimethyl-butylcarbamoyl)-2-aza-bicyclo[3.1.0]hex-2-yl]-2-oxo-ethyl}-1H-indazole-3-carboxylic acid amide]	5.36
CC(=O)c1nn(CC(=O)N2[C@@H]3C[C@@H]3C[C@H]2C(=O)NCCOC(F)(F)C(F)(F)F)c2ccc(OCc3ncccn3)cc12 [Example 16, (1R,3S,5R)-2-{2-[3-Acetyl-5-(pyrimidin-2-ylmethoxy)-indazol-1-yl]-acetyl}-2-aza-bicyclo[3.1.0]hexane-3-carboxylic acid (2-penta fluoroethyloxy-ethyl)-amide]	0.152
CCNC(=O)[C@@H]1C[C@H]2C[C@H]2N1C(=O)Cn1nc(C(C)=O)c2cc(OCc3ncccn3)ccc21 [Example 13, (1R,3S,5R)-2-{2-[3-Acetyl-5-(pyrimidin-2-ylmethoxy)-indazol-1-yl]-acetyl}-2-aza-bicyclo[3.1.0]hexane-3-carboxylic acid ethylamide]	0.504
CC(C)(O)CCNC(=O)[C@@H]1C[C@H]2C[C@H]2N1C(=O)Cn1nc(C(N)=O)c2ccncc21 [Example 10, 1-{2-[(1R,3S,5R)-3-(3-Hydroxy-3-methyl-butylcarbamoyl)-2-aza-bicyclo[3.1.0]hex-2-yl]-2-oxo-ethyl}-1H-pyrazolo[3,4-c] pyridine-3-carboxylic acid amide trifluoroacetate]	5.67
CO[C@H]1[C@@H](C(=O)NCCC(C)(C)C)N(C(=O)Cn2nc(C(C)=O)c3ccccc32)C[C@@H]1F [Example 5, (2S,3S,4S)-1-[2-(3-Acetyl-indazol-1-yl)-acetyl]-4-fluoro-3-methoxy-pyrrolidine-2-carboxylic acid (3,3-dimethyl-butyl)-amide]	0.088
CO[C@@H]1CN(C(=O)Cn2nc(C(N)=O)c3ccccc32)[C@H](C(=O)NCCC(C)(C)C)[C@H]1F [Example 11, 1-{2-[(2R,3R,4R)-2-(3,3-Dimethyl-butylcarbamoyl)-3-fluoro-4-methoxy-pyrrolidin-1-yl]-2-oxo-ethyl}-1H-indazole-3-carboxylic acid amide]	14.6
CCNC(=O)[C@@H]1C[C@H]2C[C@H]2N1C(=O)Nc1cn(C(N)=O)c2ccccc12 [Example 24, (1R,3S,5R)-2-Aza-bicyclo [3.1.0]hexane-2,3-dicarboxylic acid 2-[(1-carbamoyl-1H-indol-3-yl)-amide] 3-ethylamide]	1.75
C[Si](C)(C)CCNC(=O)[C@@H]1C[C@H]2C[C@H]2N1C(=O)Cn1nc(C(N)=O)c2ccccc21 [Example 28, 1-{2-oxo-2-[(1R,3S,5R)-3-(2-trimethylsilanyl-ethylcarbamoyl)-2-aza-bicyclo[3.1.0]hex-2-yl]-ethyl}-1H-indazole-3-carboxylic acid amide]	0.065
CC(C)(C)C[C@@H](CO)NC(=O)[C@@H]1C[C@H]2C[C@H]2N1C(=O)Cn1nc(C(N)=O)c2ccccc21 [Example 35, 1-{2-[(1R,3S,5R)-3-((S)-1-Hydroxymethyl-3,3-dimethyl-butylcarbamoyl)-2-aza-bicyclo[3.1.0]hex-2-yl]-2-oxo-ethyl}-1H-indazole-3-carboxylic acid amide]	0.593
CC(=O)c1nn(CC(=O)N2[C@@H]3C[C@@H]3C[C@H]2C(=O)NCCC(C)(C)C)c2ccc(OCc3ncccn3)cc12 [Example 8, (1R,3S,5R)-2-{2-[3-Acetyl-5-(pyrimidin-2-ylmethoxy)-indazol-1-yl]-acetyl}-2-aza-bicyclo[3.1.0]hexane-3-carboxylic acid (3,3-dimethyl-butyl)-amide]	0.009
CO[C@H]1[C@@H](C(=O)NCCC(C)(C)C)N(C(=O)Cn2nc(C(N)=O)c3cc(C)ncc32)C[C@@H]1F [Example 4, 1-{2-[(2S,3S,4S)-2-(3,3-Dimethyl-butylcarbamoyl)-4-fluoro-3-methoxy-pyrrolidin-1-yl]-2-oxo-ethyl}-5-methyl-1H-pyrazolo[3,4-c]pyridine-3-carboxylic acid amide]	0.161
CC(=O)c1nn(CC(=O)N2[C@@H]3C[C@@H]3C[C@H]2C(=O)NC(C)C)c2ccc(OCc3ncccn3)cc12 [Example 20, (1R,3S,5R)-2-{2-[3-Acetyl-5-(pyrimidin-2-ylmethoxy)-indazol-1-yl]-acetyl}-2-aza-bicyclo[3.1.0]hexane-3-carboxylic acid isopropyl amide]	0.328
CC(=O)c1nn(CC(=O)N2[C@@H]3C[C@@H]3C[C@H]2C(=O)NCCC(C)(C)C)c2ncccc12 [Example 29, (1R,3S,5R)-2-[2-(3-Acetyl-pyrazolo[3,4-b]pyridin-1-yl)-acetyl]-2-aza-bicyclo[3.1.0] hexane-3-carboxylic acid (3,3-dimethyl-butyl)-amide]	0.227
CCNC(=O)[C@@H]1C[C@H]2C[C@H]2N1C(=O)Cn1nc(C(N)=O)c2cc(OCc3ncccn3)ccc21 [Example 18, 1-[2-((1R,3S,5R)-3-Ethylcarbamoyl-2-aza-bicyclo[3.1.0]hex-2-yl)-2-oxo-ethyl]-5-(pyrimidin-2-ylmethoxy)-1H-indazole-3-carboxylic acid amide]	2.89
C[Si](C)(C)CCNC(=O)[C@@H]1C[C@H]2C[C@H]2N1C(=O)Nc1cn(C(N)=O)c2ccccc12 [Example 22, (1R,3S,5R)-2-Aza-bicyclo [3.1.0]hexane-2,3-dicarboxylic acid 2-[(1-carbamoyl-1H-indol-3-yl)-amide] 3-[(2-trimethylsilanyl-ethyl)-amide]]	0.057
CC(=O)c1nn(CC(=O)N2[C@@H]3C[C@@H]3C[C@H]2C(=O)NCCC(C)C)c2ncccc12 [Example 30, (1R,3S,5R)-2-[2-(3-Acetyl-pyrazolo[3,4-b]pyridin-1-yl)-acetyl]-2-aza-bicyclo[3.1.0] hexane-3-carboxylic acid (3-methyl-butyl)-amide]	0.324
CC(C)(C)C(F)CNC(=O)[C@@H]1C[C@H]2C[C@H]2N1C(=O)Cn1nc(C(N)=O)c2ccccc21 (stereo partly drawn) [Example 44, 1-{2-[(1R,3S,5R)-3-(2-Fluoro-3,3-dimethyl-butylcarbamoyl)-2-aza-bicyclo[3.1.0]hex-2-yl]-2-oxo-ethyl}-1H-indazole-3-carboxylic acid amide]	0.384
CC(=O)c1nn(CC(=O)N2[C@@H]3C[C@@H]3C[C@H]2C(=O)NCCCOC(F)(F)F)c2ccccc12 [Example 2, (1R,3S,5R)-2-[2-(3-Acetyl-indazol-1-yl)-acetyl]-2-aza-bicyclo[3.1.0]hexane-3-carboxylic acid (3-trifluoromethoxy-propyl)-amide]	0.605
CC(C)(C)C(O)CNC(=O)[C@@H]1C[C@H]2C[C@H]2N1C(=O)Cn1nc(C(N)=O)c2ccccc21 (stereo partly drawn) [Example 33, 1-{2-[(1R,3S,5R)-3-(2-Hydroxy-3,3-dimethyl-butylcarbamoyl)-2-aza-bicyclo [3.1.0]hex-2-yl]-2-oxo-ethyl}-1H-indazole-3-carboxylic acid amide]	0.271
